We go through 21 molecules from patent publication US20240300954A1, “NOVEL MODULATORS OF THE SIGMA-2 RECEPTOR AND THEIR METHOD OF USE” (Temple University-Of The Commonwealth System of Higher …, priority 2017, published 2024).

What is called IC50 is the point on the concentration scale where inhibition reaches its midpoint.

The structures appear in SMILES notation.

Chain of sigma-2 receptors (Q5BJF2 whole entry, looked up): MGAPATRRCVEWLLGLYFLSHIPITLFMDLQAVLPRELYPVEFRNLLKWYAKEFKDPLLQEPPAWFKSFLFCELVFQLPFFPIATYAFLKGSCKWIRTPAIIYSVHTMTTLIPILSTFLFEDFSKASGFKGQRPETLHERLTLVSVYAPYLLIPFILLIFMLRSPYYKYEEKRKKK

In the experiment the target is sigma-2 receptors (Homo sapiens, UniProt Q5BJF2). The experiment is described as follows: Radiolabel Binding Studies for the Sigma-2 Receptor (3H-DTG competition). The conditions noted are these: 3H-DTG radioligand; membrane fractions of cells expressing recombinant sigma-2 receptors. The protocol:
A solution of the compound of the disclosure to be tested is prepared as a 1-mg/ml stock in Assay Buffer or DMSO according to its solubility. A similar stock of the reference compound Haloperidol is also prepared as a positive control. Eleven dilutions (5× assay concentration) of the compound of the disclosure and Haloperidol are prepared in the Assay Buffer by serial dilution to yield final corresponding assay concentrations ranging from 10 pM to 10 μM.
A stock concentration of 5 nM ^3H-1,3-di-(2-tolyl)guanidine (^3H-DTG) is prepared in 50 mM Tris-HCl, 10 mM MgCl2, 1 mM EDTA, pH 7.4 (Assay Buffer). Aliquots (50 μl) of radioligand are dispensed into the wells of a 96-well plate containing 100 μl of Assay Buffer. Duplicate 50 μl aliquots of the compound of the disclosure test and Haloperidol positive control reference compound serial dilutions are added.
Membrane fractions of cells expressing recombinant sigma-2 receptors (50 μL) are dispensed into each well. The membranes are prepared from stably tranfected cell lines expressing sigma-2 receptors cultured on 10-cm plates by harvesting PBS-rinsed monolayers, resuspending and lysing in chilled, hypotonic 50 mM Tris-HCl, pH 7.4, centrifuging at 20,000×g, decanting the supernatant and storing at −80° C.; the membrane preparations are resuspended in 3 ml of chilled Assay Buffer and homogenized by several passages through a 26 gauge needle before using in the assay.
The 250-μl reactions are incubated at room temperature for 1.5 hours, then harvested by rapid filtration onto 0.3% polyethyleneimine-treated, 96-well filter mats using a 96-well Filtermate harvester. Four rapid 500-μl washes are performed with chilled Assay Buffer to reduce non-specific binding. The filter mats are dried, then scintillant is added to the filters and the radioactivity retained on the filters is counted in a Microbeta scintillation counter.
Raw data (dpm) representing total radioligand binding (i.e., specific+non-specific binding) are plotted as a function of the logarithm of the molar concentration of the competitor (i.e., test or reference compound). Non-linear regression of the normalized (i.e., percent radioligand binding compared to that observed in the absence of test or reference compound) raw data is performed in Prism 4.0 (GraphPad Software) using the built-in three parameter logistic model describing ligand competition binding to radioligand-labeled sites:
[formula] • where bottom equals the residual radioligand binding measured in the presence of 10 μM reference compound (i.e., non-specific binding) and top equals the total radioligand binding observed in the absence of competitor. The log IC50 (i.e., the log of the ligand concentration that reduces radioligand binding by 50%) is thus estimated from the data and used to obtain the Ki by applying the Cheng-Prusoff approximation:
[formula] • where [ligand] equals the assay radioligand concentration and KD equals the affinity constant of the radioligand for the target receptor.
As to `O=C1OC(CCN2CC3(C2)CN(c2ccccc2)C3)CC12CCCCC2` (stereo not drawn) [Entry 11], the concentration for half-maximal inhibition (IC50) worked out at 30 nM.
On to `CCC1(CC)CC(CCN2CC3CN(c4cccc(OC)c4)CC3C2)OC1=O` (stereo not drawn) [Entry 20], for which the IC50 amounted to 25 nM.
For `Cc1cc(N2CC3(CN(CCC4CC5(CCCCC5)C(=O)O4)C3)C2)cc(C)n1` (stereo not drawn) [Entry 14] the value was 1.5 nM; for `Cc1cc(N2CC3CN(CCC4CC5(CCCCC5)C(=O)O4)CC3C2)ccn1` (stereo not drawn) [Entry 7], 11 nM.
Consider `Cc1cnccc1N1CC2CN(CCC3CC4(CCCCC4)C(=O)O3)CC2C1` (stereo not drawn) [Entry 6], for which the 50% inhibitory concentration (IC50) was 3.9 nM.
Under `CC(C)c1ccccc1N1CC2CN(CCC3CC4(CCCCC4)C(=O)O3)CC2C1` (stereo not drawn) [Entry 5] stands 2.4 nM.
Take `Cc1cc(N2CC3(CN(CCC4CC5(CCCCC5)C(=O)O4)C3)C2)ccn1` (stereo not drawn) [Entry 13]: the IC50 turned out to be 1.2 nM.
Turning to `CCC1(CC)CC(CCN2CC3(C2)CN(c2ccncc2)C3)OC1=O` (stereo not drawn) [Entry 10], the concentration for half-maximal inhibition (IC50) came to 59 nM.
For the molecule `CCC1(CC)CC(CCN2CC3CN(c4cccc(C#N)c4)CC3C2)OC1=O` (stereo not drawn) [Entry 17], the IC50 was found to be 7 nM.
For `CCC1(CC)CC(CCN2CC3CN(c4ccc(C#N)cc4)CC3C2)OC1=O` (stereo not drawn) [Entry 18] the value was 9.6 nM; for `O=C1OC(CCN2CC3CN(c4ccncc4)CC3C2)CC12CCCCC2` (stereo not drawn) [Entry 3], 39 nM.
Under `CCC1(CC)CC(CCN2CC3CN(c4ccc(OC)cc4)CC3C2)OC1=O` (stereo not drawn) [Entry 21] stands 22 nM; under `CCC1(CC)CC(CCN2CC3CN(c4ccccc4C(C)C)CC3C2)OC1=O` (stereo not drawn) [Entry 4], 2 nM.
Under `CCC1(CC)CC(CCN2CC3CN(c4ccncc4)CC3C2)OC1=O` (stereo not drawn) [Entry 2] stands 29 nM; under `CCC1(CC)CC(CCN2CC3CN(c4ccccc4C#N)CC3C2)OC1=O` (stereo not drawn) [Entry 16], 6.8 nM.
As to `Cc1cnccc1N1CC2(CN(CCC3CC4(CCCCC4)C(=O)O3)C2)C1` (stereo not drawn) [Entry 12], the IC50 stood at 3.9 nM.
For `CCC1(CC)CC(CCN2CC3CN(c4ccccc4)CC3C2)OC1=O` (stereo not drawn) [Entry 1] the value was 3.5 nM.
Consider `CCC1(CC)CC(CCN2CC3(C2)CN(c2ccccc2)C3)OC1=O` (stereo not drawn) [Entry 15], for which the half-maximal inhibitory concentration (IC50) was 53 nM.
For `Cc1cc(N2CC3CN(CCC4CC5(CCCCC5)C(=O)O4)CC3C2)cc(C)n1` (stereo not drawn) [Entry 8] the value was 24 nM; for `O=C1OC(CCN2CC3(C2)CN(c2ccncc2)C3)CC12CCCCC2` (stereo not drawn) [Entry 9], 34 nM; for `CCC1(CC)CC(CCN2CC3CN(c4ccccc4OC)CC3C2)OC1=O` (stereo not drawn) [Entry 19], 6.5 nM.
